# According to US20150297761A1, “PEPTIDIC STRUCTURES INCORPORATING AN AMINO ACID METAL COMPLEX AND APPLICATIONS IN MAGNETIC RESONANCE IMAGING” (THE GENERAL HOSPITAL CORPORATION, priority 2012, published 2015):
# Like-named read-outs stand apart in the source and are kept apart here.
# Experiments:
# [1] = Zn(II) challenge of the Gd(III) complex of L; literature (ref 11); cited from earlier work
# [2] = Ligand challenge, equilibrium constant Kcomp of MS-325 vs. L; format: physicochemical
# Protocol: (§1) Equilibration of each solution was monitored by LC-MS. Relative distributions of [Gd(CyPic3A)(H2O)2]^− and CyPic3A were determined by integrating the corresponding absorbance traces at 280 nm. […] Kcomp values determined between [Gd(DTPA)(H2O)]^2− and various ligands were determined from conditional formation constants (Kcond)^4 values taken from the literature.^6-16 Direct comparisons were only made between Kcond values determined under identical conditions.
# [3] = Ligand challenge, equilibrium constant Kcomp of [Gd(DTPA)(H2O)]2− vs. L; format: physicochemical; details: for Kcomp [Gd(DTPA)(H2O)]^2- vs. L pH 4 / Kcomp, [Gd(DTPA)(H2O)]^2- vs. L pH 7.4: calculated from literature thermodynamic data
# Protocol: As a means of assessing thermodynamic stability relative to other Gd(III)-complexes, [Gd(CyPic3A)(H2O)2]^− was challenged with DTPA in pH 7.4 25 mM Tris buffer. […] From this information it was possible to deduce equilibrium constants (Kcomp) for the competition reaction described in Equation 5,^31 where L=DTPA and L′=challenging chelator.
# as §1
# [4] = cited from earlier work; for r1 1.41 T 310K: cell says 1.5 T, literature (ref 17)
# [5] = hydration state; literature (superscript refs); cited from earlier work
# [6] = Kinetic inertness: Zn(II) transmetallation in phosphate buffer, followed by 1/T1; format: physicochemical; details: for time to 80% of the initial 1/T1: 1 equiv. Zn(II), pH 7.0 phosphate buffer, 310 K
# Excerpt: Kinetic inertness was also taken into account in the evaluation of potential probes. In this regard, [Gd(CyPic3A)(H2O)2]^− was challenged with 1 equiv. [ZnPO4]^− as a slurry in pH 7.0 phosphate buffer at 310 K (see below). Several clinically utilized Gd(III) complexes have been benchmarked relative to one another in this manner.^37 As Gd(III) replaced by Zn(II) precipitates from the solution as GdPO4, the relaxation rate 1/T1 decreases. In this method, the time required to reach 80% of the initial 1/T1 value was utilized as an index of kinetic inertness.
# Modified conditions of Muller and co-workers were used for this experiment.^11,12 Solutions containing 2.5 mM [Gd(CyPic3A)(H2O)2]^− and 2.5 mM Zn(OTf)2 were combined in pH 7.0 phosphate buffer (50 mM) and placed in an incubator shaker set to 310 K. Progress of the transchelation was monitored via the decrease in 1/T1 with time. Prior to measurement, aliquots were placed in small glass inserts and centrifuged to bring all insoluble material to the bottom so as not to interfere with the measurement.
# [7] = Relaxivity of Gd(DOTAla) metallopeptides and reference agents (T1 inversion recovery, 37° C.); format: physicochemical; details: for Relaxivity per Gd, 400 MHz: 400 MHz (9.4 T)
# Protocol: Main numbers are given per Gd, numbers in parentheses are per molecule values. All numbers were determined at 37° C. using an inversion recovery sequence at concentrations ranging from 0.05 to 0.6 mM/Gd. Table 4 in Example 2 further expands the data of Table 1.
# Per Gd relaxivities were determined by measuring T1 at 37° C. using 20, 60, 200, 400 and 500 MHz spectrometers. Relaxivities for MS-325 (with and without the presence of HSA) as a reference compound with a long τR and [Gd(HP-DO3A)(H2O)] as a reference for very short τR were also measured, and all the relaxivity data is tabulated in Table 4, together with results obtained from literature for the compounds with similar estimated τR. […] Additional rigidity through cyclization seems to provide only minor relaxivity increase for the dimeric and trimeric systems (Gd2C2 and Gd3C3).
# Measurement of relaxivity. Longitudinal relaxation times T1, were measured on Bruker Minispecs mq20 (0.47 T) and mq60 (1.41 T), a Bruker Bioscan horizontal bore 4.7 T, 9.4 T and 11.7 T Varian NMR spectrometers. T1 was measured by using an inversion recovery method with 10 inversion time values ranging from 0.05×T1 to 5×T1. Relaxivity was calculated from a linear plot of 3 or 4 different concentrations (ranging from 0.01 to 0.5 mM, depending on amount of compound isolated) versus the corresponding inverse relaxation times. All samples were measured at 37° C. using either the internal temperature control of the instrument (0.47, 1.41, 9.4 and 11.7 T) or a warm air blower (4.7 T). MS-325/HSA was prepared in a 4.5% w/v solution of HSA (0.66 mM) in PBS. The MS-325 concentration (in presence of HSA) ranged from 0.05 to 0.15 mM.
# [8] = cited from earlier work
# [9] = literature (refs 37, 38), cited from earlier work
# [10] = Ligand challenge, equilibrium constant Kcomp of [Gd(DTPA)(H2O)]2− vs. L; format: physicochemical; details: obtained through ligand challenge
# [11] = buffer, pH 3
# Protocol: For comparison, we also measured transchelation from the approved contrast agents [Gd(HP-DO3A)(H2O)] (ProHance, gadoteridol) and [Gd(DTPA)(H2O)]^2− (Magnevist, gadopentetate). […] We estimated half-times for these transchelations (time to 50% of the equilibrium value).
# Stock solutions of MS-325-L and GdL1, Gd2L2 and Gd3L3 were prepared in 50 mM citrate buffer at pH 3.0. MS-325-L was added to solutions of the Gd complexes and incubated at 37° C. The final concentrations of the metal complexes were 0.1 mM, while the concentration of MS-325-L was adjusted according to the amounts of Gd complexes per metallopeptide present. A 10 μL aliquot was removed for HPLC analysis and analyzed while the remainder of the solution was incubated at 37° C.
# [12] = Relaxometry of [Gd(CyPic3A)(H2O)2]− in different media; format: physicochemical
# Protocol: The relaxivity of [Gd(CyPic3A)(H2O)2]^− is consistent with two inner-sphere water ligands. At 310 K in pH 7.4 50 mM HEPES buffer, r1=5.70 mM^−1 s^−1 at 1.41 T (7.53 mM^−1s^−1 at 298 K). This is 75% higher than [Gd(DTPA)(H2O)]^2− measured under these conditions (see below for detailed table of r1 values). To probe the effects of potentially coordinating anions, nwas measured in the presence of 20 equiv. carbonate or L-lactate and also in 25 mM phosphate buffer (pH 7.4).
# Relaxivity measurements were performed on a Bruker mq60 or Bruker mq20 Minispec at 1.41 T and 0.47 T, respectively, and 37° C. Longitudinal (T1) relaxation was acquired via an inversion recovery experiment on 10 inversions of duration ranging between 0.05×T1 and 5×T1. Relaxivity (r1) was determined from the slope of a plot of 1/T1 vs. [Gd] for at least 4 concentrations of Gd(III). The transverse (T2) relaxation times of ^17O were acquired at 500 MHz using a CPMG pulse sequence at temperatures ranging from 278 to 368 K. Reduced relaxation rates (1/T2r) were calculated by dividing the [Gd(CyPic3A)(H2O)2]^− imparted increase in 1/T2 relative to neat H2O at pH 3 by the mole fraction of coordinated water molecules.
# [13] = calculated from literature thermodynamic data
# [14] = 0.47 T, literature (superscript refs)
# [15] = obtained through ligand challenge
compound,measurement,setting,value
O=C(O)CN1CCNCCN(CC(=O)O)CCN(CC(=O)O)CC1 [DO3A],Time to 80% r1 (min),[1],inert^11
same,Kcomp MS-325 vs. L pH 4,[2]; [13],"0.00046^5,6"
same,Kcomp MS-325 vs. L pH 7.4,[2]; [13],"0.00017^5,6"
same,Kcomp [Gd(DTPA)(H2O)]^2- vs. L pH 4,[3],"0.00048^5,6"
same,"Kcomp, [Gd(DTPA)(H2O)]^2- vs. L pH 7.4",[3]; pH 7.4,"0.0005^5,6"
CC(O)CN1CCN(CC(=O)O)CCN(CC(=O)O)CCN(CC(=O)O)CC1 (centres unmarked) [HP-DO3A],Time to 80% r1 (min),[1],inert^11
same,Kcomp MS-325 vs. L pH 4,[2]; [13],"0.16^5,6"
same,Kcomp MS-325 vs. L pH 7.4,[2]; [13],"0.07^5,6"
same,Kcomp [Gd(DTPA)(H2O)]^2- vs. L pH 4,[3],0.22^6
same,"Kcomp, [Gd(DTPA)(H2O)]^2- vs. L pH 7.4",[3]; pH 7.4,0.19^6
CNC(=O)CN(CCN(CCN(CC(=O)[O-])CC(=O)NC)CC(=O)[O-])CC(=O)[O-].[Gd+3] [[Gd(DTPA-BMA)(H2O)]],r1 0.47 T 310K,[4]; [14],3.5^17 mM^−1s^−1
same,r1 1.41 T 310K,[4],3.3 (1.5 T)^17 mM^−1s^−1
same,q,[5],1^16
same,time to 80% of the initial 1/T1,[6],124 min
"O=C([O-])CN(CCN(CC(=O)[O-])C[C@H](COP(=O)([O-])OC1CCC(c2ccccc2)(c2ccccc2)CC1)N(CC(=O)[O-])CC(=O)[O-])CC(=O)[O-].[Gd+3].[H+].[H+].[H+] [MS-325, gadofosveset]","Relaxivity per Gd, 200 MHz",[7]; 200 MHz,5.7 mM⁻¹ s⁻¹
same,"Relaxivity per Gd, 200 MHz, with HSA","[7]; 200 MHz, presence of 4.5% HSA",5.0 mM⁻¹ s⁻¹
same,"Relaxivity per Gd, 400 MHz",[7],4.8 mM⁻¹ s⁻¹
same,"Relaxivity per Gd, 400 MHz, with HSA","[7]; 400 MHz, presence of 4.5% HSA",4.1 mM⁻¹ s⁻¹
same,"Relaxivity per Gd, 500 MHz",[7]; 500 MHz,4.7 mM⁻¹ s⁻¹
same,"Relaxivity per Gd, 500 MHz, with HSA","[7]; 500 MHz, presence of 4.5% HSA",3.7 mM⁻¹ s⁻¹
same,r1 0.47 T 310K,[4]; [14],5.8^17 mM^−1s^−1
same,r1 1.41 T 310K,[4],5.2 (1.5 T)^17 mM^−1s^−1
same,"Relaxivity per Gd, 20 MHz","[8]; 20 MHz, 37° C., literature data (footnotes a, b, d)",6.8^d mM^−1 s^−1
same,"Relaxivity per Gd, 20 MHz, with HSA","[8]; 20 MHz, 37° C., presence of 4.5% HSA, from ref 22",42^d mM^−1 s^−1
same,"Relaxivity per Gd, 60 MHz","[8]; 60 MHz, 37° C., literature data (footnotes a, b, d)",5.4^d mM^−1 s^−1
same,"Relaxivity per Gd, 60 MHz, with HSA","[8]; 60 MHz, 37° C., presence of 4.5% HSA, from ref 22",23.8^d mM^−1 s^−1
same,peak molecular relaxivity,[8]; HSA-associated,above 40 mM^−1s^−1
same,increase in relaxivity once associated with human serum albumin (HSA),[8]; at low fields,over 8 fold
same,q,[5],1^18
Gd(DO3A-N-α-aminopropionate) [F],ΔH^‡,[9]; activation enthalpy of water exchange,4.57 kcal/mol
same,^310kex × 10^6 (s^−1),[9]; water exchange rate at 310 K,42 × 10^6 s^−1
same,^310 TM (ns),[9]; water residency time at 310 K (37° C.),24 ns
"N-((6-methylpicol-2-yl)methyl)-N,N′,N′-triacetate-trans-1,2-diaminocyclohexane [CyPic3A]",Kcomp [Gd(DTPA)(H2O)]^2- vs. L pH 4,[10],0.18
same,Kcomp MS-325 vs. L pH 4,[2]; [15],0.031
same,Kcomp MS-325 vs. L pH 7.4,[2]; [15],0.56
same,affinity for Gd(III) lower than DTPA,[3]; pH 7.4,about 5 fold
same,Time to 80% r1,"[6]; Zn(II) challenge of the Gd(III) complex of L, this work",95 min
"CC(O)CN1CCN(CC(=O)[O-])CCN(CC(=O)[O-])CCN(CC(=O)[O-])CC1.[Gd+3] (centres unmarked) [[Gd(HP-DO3A)(H2O)], gadoteridol, reference compound]","Relaxivity per Gd, 20 MHz",[7]; 20 MHz,4.3 mM⁻¹ s⁻¹
same,"Relaxivity per Gd, 60 MHz",[7]; 60 MHz,3.2 mM⁻¹ s⁻¹
same,"Relaxivity per Gd, 200 MHz",[7]; 200 MHz,3.6 mM⁻¹ s⁻¹
same,"Relaxivity per Gd, 400 MHz",[7],3.0 mM⁻¹ s⁻¹
same,"Relaxivity per Gd, 500 MHz",[7]; 500 MHz,2.9 mM⁻¹ s⁻¹
same,"r1 [0.47 T], per Gd","[7]; per Gd, 0.47 T",4.33 mM⁻¹ s⁻¹
same,"r1 [1.4 T], per Gd","[7]; per Gd, 1.4 T",3.21 mM⁻¹ s⁻¹
same,"r1 [9.4 T], per Gd","[7]; per Gd, 9.4 T",3.03 mM⁻¹ s⁻¹
same,"r1 [11.7 T], per Gd","[7]; per Gd, 11.7 T",2.94 mM⁻¹ s⁻¹
same,r1 0.47 T 310K,[4]; [14],3.1^17 mM^−1s^−1
same,r1 1.41 T 310K,[4],2.9 (1.5 T)^17 mM^−1s^−1
same,"t1/2 [h], Gd transchelation to MS-325",[11],91 ± 6 h
same,q,[5],1^16
"O=C([O-])CN(CCN(CC(=O)[O-])CC(=O)O)CCN(CC(=O)[O-])CC(=O)O.[Gd+3] [[Gd(DTPA)(H2O)]^2−, gadopentetate]",r1 1.41 T 310K,[12],3.26 mM⁻¹ s⁻¹
same,r1,"[12]; 1.41 T, 310 K, pH 7.4 50 mM HEPES buffer",3.26 mM⁻¹ s⁻¹
same,r1 0.47 T 298K,"[4]; 0.47 T, 298 K, literature (superscript refs)",4.3^16 mM^−1s^−1
same,r1 0.47 T 310K,[4]; [14],3.4^17 mM^−1s^−1
same,"t1/2 [h], Gd transchelation to MS-325",[11],0.42 ± 0.18 h
same,q,[5],1^16
same,time to 80% of the initial 1/T1,[6],383 min
O=C(O)CN(CCN(CC(=O)O)C[C@H](COP(=O)(O)OC1CCC(c2ccccc2)(c2ccccc2)CC1)N(CC(=O)O)CC(=O)O)CC(=O)O,Time to 80% r1 (min),[1],3800^11 min
same,Kcomp MS-325 vs. L pH 4,[2]; [13],1
same,Kcomp MS-325 vs. L pH 7.4,[2]; [13],1
same,Kcomp [Gd(DTPA)(H2O)]^2- vs. L pH 4,[3],0.57^5
same,"Kcomp, [Gd(DTPA)(H2O)]^2- vs. L pH 7.4",[3]; pH 7.4,2.88^5
